# According to patent publication US11517603B2, “Bone remodeling accelerator” (HOKURIKU UNIVERSITY, priority 2017, dated 2022):
# Legend:
# [1] = test system: osteoblast differentiation of mouse bone marrow cells; assay: Differentiation of osteoblast: ALP-positive osteoblast nodules in mouse bone marrow cell culture; assay type: cell-based; settings: final concentration of 5 μM and 10 μM; p<0.05 or p<0.01; FIG. 1
# Protocol: Mouse bone marrow cells were seeded in each well of a microplate containing 0.5 mL Eagle minimum essential medium a modified type (α-MEM) (manufactured by MP Biomedicals INC.) at 2.5×10^6 cells/well, and cultured at 37° C., carbon dioxide concentration=5(v/v)%. […] On days 1 and 4 of culture, a differentiation induction reagent (0.2 mM ascorbic acid, 2.5 mM β-glycerophosphoric acid, 10 nM dexamethasone) was added to the following final concentrations. At 6 days from the culture, the cells were stained with alkaline phosphatase (ALP), observed with a microscope (inverted culture microscope “CK40”, manufactured by Olympus Corporation, magnification=40×), and the osteoblast nodule stained with ALP, i.e., cell nodule formed by differentiated osteoblast, was detected.
# [2] = test system: osteoclast differentiation of mouse bone marrow cells; assay: Differentiation of osteoclast: TRAP-positive osteoclasts in mouse bone marrow cell culture; assay type: cell-based; settings: FIG. 2
# Protocol: Mouse bone marrow cells were seeded in each well of a microplate containing 0.5 mL α-MEM (manufactured by MP Biomedicals INC.) at 3.5×10^6 cells/well, and cultured at 37° C., carbon dioxide concentration=5(v/v)%. […] On days 1 and 4 of culture, a differentiation induction reagent (calcitriol) was added to a final concentration of 10 nM. At 6 days from the culture, the cells were stained with tartaric acid resistance acidic phosphatase (TRAP), observed with a microscope (inverted culture microscope “CK40”, manufactured by Olympus Corporation, magnification=40×), and the cells stained with TRAP, i.e., differentiated osteoclasts, were detected.
structure (smiles),measurement,setting,value
"O=C1CC(c2ccc(O)c(O)c2)Oc2cc(OC3OC(CO)C(O)C(O)C3O)ccc21 [F2, 3′,4′,7-trihydroxyflavanone 7-O-β-D-glucopyranoside]",number of ALP-positive osteoblast nodules versus control,[1],significant difference from the control
same,final concentration at which a concentration-dependent differentiation accelerating action on osteoclast was exhibited,"[2]; TRAP-positive osteoclast number per well, 6 days of culture",≥ 2.5 µM
same,TRAP-positive osteoclast number versus control,[2]; final concentration of 5 μM and 10 μM,significant difference of p<0.05
